Experimental data from US7799820B2, “2-Heterocycle-substituted indole derivatives for treating diabetes and associated conditions” (Banyu Pharmaceutical Co., Ltd., priority 2005, dated 2010).

Target: T1, recombinant human liver GK (Homo sapiens, UniProt P35557)
T1 construct: made in house; host or cells: E. coli
T1 sequence (P35557 1-466 isoform P35557-2): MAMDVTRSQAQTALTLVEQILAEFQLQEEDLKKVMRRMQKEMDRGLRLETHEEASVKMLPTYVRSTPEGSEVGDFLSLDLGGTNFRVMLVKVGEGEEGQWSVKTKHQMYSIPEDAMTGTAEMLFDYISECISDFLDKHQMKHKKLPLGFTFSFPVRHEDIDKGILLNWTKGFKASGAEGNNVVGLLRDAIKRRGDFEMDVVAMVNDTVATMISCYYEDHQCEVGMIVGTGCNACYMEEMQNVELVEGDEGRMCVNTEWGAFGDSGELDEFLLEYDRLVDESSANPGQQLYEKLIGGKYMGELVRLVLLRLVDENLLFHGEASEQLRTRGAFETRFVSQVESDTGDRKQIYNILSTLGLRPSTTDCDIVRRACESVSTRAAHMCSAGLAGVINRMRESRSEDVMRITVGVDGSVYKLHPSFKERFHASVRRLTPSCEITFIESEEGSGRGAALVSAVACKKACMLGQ
Assay: glucokinase activation assay (Thio-NADH, G6PDH-coupled)
Type: biochemical
Details: final glucose concentration 2.5 mM; 30° C.
Text: The excellent glucokinase-activating effect of the compounds of formula (I) may be determined by a method described in literature (e.g., Diabetes, Vol. 45, pp. 1671-1677, 1996), or in accordance with it.
The glucokinase activity may be determined not by directly measuring glucose-6-phosphate but by measuring the level of Thio-NADH, which is produced when a reporter enzyme, glucose-6-phosphate dehydrogenase produces phosphogluconolactone from glucose-6-phosphate, and based on that level, the level of glucokinase activation may be determined.
In this assay, used was a recombinant human liver GK, which was expressed by E. coli as a FLAG fusion protein therein and was purified by ANTIFLAG M2 AFFINITY GEL (Sigma).
Using a flat-bottomed 96-well plate, the assay was carried out at 30° C. 69 μl of an assay buffer (25 mM Hepes Buffer, pH=7.2, 2 mM MgCl2, 1 mM ATP, 0.5 mM TNAD, 1 mM dithiothreitol) was put into the plate, and 1 μl of a DMSO solution of the compound or DMSO alone as a control was added thereto. Next, 20 μl of an enzyme mixture (FLAG-GK, 20 U/ml G6PDH) cooled in ice was added to it, and 10 μl of a substrate, 25 mM glucose was added to it, and the reaction was initiated (final glucose concentration=2.5 mM).
After the start of the reaction, the increase in the absorbance at 405 nm was measured for 12 minutes at intervals of 30 seconds, and the increase for the first 5 minutes was used for evaluating the compound tested. FLAG-GK was added so that the absorbance increase after 5 minutes in the presence of 1% DMSO could be from 0.04 to 0.06.
The OD level of the DMSO control was set as 100%; and the OD level of the test compound at different concentrations was determined. From the OD level at each concentration, Emax (%) and EC50 (μM) were computed and used as the index of the GK-activating potency of the compound.

Row | EC50 [nM] | Structure (SMILES)
1 | 180 | CCS(=O)(=O)c1ccc(Oc2cc3cc(-c4ccccn4)[nH]c3cc2Oc2cccnc2OC(F)F)cn1 [Example 2, 6-([2-(Difluoromethoxy)pyridin-3-yl]oxy)-5-([6-(ethylsulfonyl)pyridin-3-yl]oxy)-2-pyridin-2-yl-1H-indole]
2 | 50 | Cc1nc(-c2ccc(Oc3cc4cc(-c5ccccn5)[nH]c4cc3CN3CCCC3=O)cn2)no1 [Example 6, 1-[(5-([6-(5-Methyl-1,2,4-oxadiazol-3-yl)pyridin-3-yl]oxy)-2-pyridin-2-yl-1H-indol-6-yl)methyl]pyrrolidin-2-one]
3 | 70 | CS(=O)(=O)c1ccc(Oc2cc3cc(-c4ccccn4)[nH]c3cc2CN2CCCC2=O)cn1 [Example 3, 1-[(5-([6-(Methylsulfonyl)pyridin-3-yl]oxy)-2-pyridin-2-yl-1H-indol-6-yl)methyl]p-pyrrolidin-2-one]
